Measured values taken from patent US20060069132A1, “Azolecarboxamide herbicides” (priority 2004, published 2006).

Key:
[1] = test system: wheat; assay: Test B postemergence herbicide test; assay type: in vivo, Triticum aestivum; set-up: key to Wheat plant response rating: 0 = no effect, 100 = complete control; settings: for Wheat plant response rating: postemergence
In short: (§1)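 Scale 0–100: zero equals no visible effect, 100 complete control, judged by eye relative to controls. Timing: 13 to 15 days in greenhouse post-treatment. Growth stage at spraying: two leaves (paddy) or one to four leaves, 2–18 cm (postemergence).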

[2] = test system: small flower umbrella sedge; assay: Test B flooded paddy test; assay type: in vivo, Cyperus difformis; settings: 1000 g ai/ha, scale 0 to 100 (0 no effect, 100 complete control)
In short: as §1

[3] = test system: large crabgrass; assay: Test B pre-/postemergence herbicide test; assay type: in vivo, Digitaria sanguinalis
In short: (§2)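 Visual rating, 0 (no effect) to 100 (complete control), versus untreated controls after 13–15 d in greenhouse. Pre- and postemergence applications (postemergence plants 2–18 cm, 1–4 leaves); flooded paddy arm at 2-leaf stage. Compounds in non-phytotoxic solvent plus surfactant.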

[4] = test system: pigweed; assay: Test B pre-/postemergence herbicide test; assay type: in vivo, Amaranthus retroflexus; settings: for Pigweed plant response rating: postemergence
In short: as §2

[5] = test system: velvetleaf; assay: Test B pre-/postemergence herbicide test; assay type: in vivo, Abutilon theophrasti; settings: for Velvetleaf plant response rating: postemergence
In short: as §2

[6] = test system: barnyardgrass; assay: Test B pre-/postemergence herbicide test; assay type: in vivo, Echinochloa crus-galli
In short: (§3)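 Formulation: non-phytotoxic solvent mix with surfactant. Timing: preemergence on seed and postemergence on 2–18 cm plants, applied concurrently. Readout after 13–15 d greenhouse: visual 0–100 control rating against controls.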

[7] = test system: lambsquarters; assay: Test B pre-/postemergence herbicide test; assay type: in vivo, Chenopodium album; settings: for Lambsquarters plant response rating: postemergence
In short: as §2

[8] = test system: Surinam grass; assay: Test B pre-/postemergence herbicide test; assay type: in vivo, Urochloa decumbens; settings: for Surinam Grass plant response rating: postemergence
In short: as §2

[9] = test system: blackgrass; assay: Test B postemergence herbicide test; assay type: in vivo, Alopecurus myosuroides; settings: scale 0 (no effect) to 100 (complete control); for Blackgrass plant response rating: postemergence, visual rating
In short: as §1

[10] = test system: corn; assay: Test B pre-/postemergence herbicide test; assay type: in vivo, Zea mays
In short: as §2

[11] = test system: giant foxtail; assay: Test B pre-/postemergence herbicide test; assay type: in vivo, Setaria faberi
In short: as §2

[12] = test system: morningglory; assay: Test B pre-/postemergence herbicide test; assay type: in vivo, Ipomoea coccinea; settings: for Morningglory plant response rating: postemergence
In short: as §3

[13] = test system: barnyardgrass; assay: Test C flooded paddy test; assay type: in vivo, Echinochloa crus-galli; settings: for Plant response rating, Barnyardgrass: 500 g ai/ha, visual rating after 12 to 14 days
In short: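 Scoring by eye, 12–14 days post-treatment, greenhouse-held plants vs. controls; 0 no effect, 100 complete control. Sprayed at 1–4 leaves (2–18 cm); paddy barnyardgrass at 2 leaves, flooded.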

[14] = test system: cocklebur; assay: Test B pre-/postemergence herbicide test; assay type: in vivo, Xanthium strumarium
In short: as §3

[15] = test system: smallflower umbrella sedge; assay: Test C flooded paddy test; assay type: in vivo, Cyperus difformis; settings: for Plant response rating, Sedge, Umbrella: 500 g ai/ha, visual rating after 12 to 14 days
[16] = test system: ducksalad; assay: Test B flooded paddy test; assay type: in vivo, Heteranthera limosa; settings: 1000 g ai/ha, scale 0 to 100 (0 no effect, 100 complete control)
In short: as §1

[17] = test system: rice; assay: Test B pre-/postemergence herbicide test; assay type: in vivo, Oryza sativa; settings: preemergence
In short: as §2

[18] = test system: ducksalad; assay: Test C flooded paddy test; assay type: in vivo, Heteranthera limosa; settings: for Plant response rating, Ducksalad: 500 g ai/ha, visual rating after 12 to 14 days
[19] = test system: barnyardgrass; assay: Test B flooded paddy test; assay type: in vivo, Echinochloa crus-galli; settings: 1000 g ai/ha, scale 0 to 100 (0 no effect, 100 complete control)
In short: as §1

[20] = test system: rice; assay: Test B flooded paddy test; assay type: in vivo, Oryza sativa; settings: 1000 g ai/ha, scale 0 to 100 (0 no effect, 100 complete control)
In short: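 Read-out: visual comparison with controls, scored 0 to 100, where 100 means complete control and 0 no effect. Formulated chemicals were applied postemergence to plants 2–18 cm tall (1- to 4-leaf), or to flooded-paddy plants at the 2-leaf stage, then held 13 to 15 days under glass.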

[21] = test system: rice; assay: Test C flooded paddy test; assay type: in vivo, Oryza sativa; settings: for Plant response rating, Rice: 500 g ai/ha, visual rating after 12 to 14 days
In short: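 Injury scored visually against controls on a 0 (no effect) to 100 (complete control) scale, 12 to 14 days after treatment in greenhouse. Flooded paddy plants treated at 2-leaf stage; postemergence plants at 1- to 4-leaf stage, 2 to 18 cm tall.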

[22] = test system: wild oat; assay: Test B postemergence herbicide test; assay type: in vivo, Avena fatua; settings: for Oat, Wild plant response rating: postemergence
In short: as §1

[23] = 125 g ai/ha, visual rating, scale 0 (no effect) to 100 (complete control)
[24] = 500 g ai/ha, scale 0 to 100, 0 is no effect, 100 is complete control
[25] = 125 g ai/ha, 0 = no effect, 100 = complete control, preemergence
[26] = 500 g ai/ha, visual rating, 0 = no effect, 100 = complete control, preemergence
[27] = postemergence, 125 g ai/ha, visual rating, scale 0 (no effect) to 100 (complete control)
[28] = postemergence, 500 g ai/ha, scale 0 to 100, 0 is no effect, 100 is complete control
[29] = postemergence, 500 g ai/ha, visual rating, scale 0 (no effect) to 100 (complete control)
[30] = 62 g ai/ha, scale 0 to 100 (0 no effect, 100 complete control)
[31] = 125 g ai/ha, scale 0 to 100 (0 no effect, 100 complete control)
[32] = 250 g ai/ha, scale of 0 to 100, 0 is no effect, 100 is complete control
[33] = scale 0 to 100 (0 no effect, 100 complete control)
[34] = Postemergence, 500 g ai/ha, visual rating after 13 to 15 days, scale 0 (no effect) to 100 (complete control)
[35] = Preemergence, 500 g ai/ha, scale 0 to 100
[36] = preemergence, 125 g ai/ha, 0 to 100 scale, 0 is no effect, 100 is complete control
[37] = 125 g ai/ha, scale of 0 to 100, 0 is no effect, 100 is complete control

CCn1nc(C(C)(C)C)cc1C(=O)Nc1ccnc(C(=O)N(C)C)c1 [Compound 256]
0: Crabgrass, Large plant response rating [3, 27] | Velvetleaf plant response rating (0 to 100 scale) [5, 25] | Barnyardgrass plant response rating (0 to 100 scale) [6, 25] | Barnyardgrass plant response rating [6, 27] | Surinam Grass plant response rating [8, 23] | Blackgrass plant response rating ([9]; 125 g ai/ha) | Corn plant response rating (0 to 100 scale) [10, 25] | Plant response rating, Corn [10, 26] | Corn plant response rating [10, 27] | Foxtail, Giant plant response rating (0 to 100 scale) [11, 25] | Foxtail, Giant plant response rating [11, 27] | Morningglory plant response rating (0 to 100 scale) [12, 25] | Plant response rating, Morningglory [12, 26] | Morningglory plant response rating [12, 23] | Barnyardgrass plant response rating [13, 30] | Barnyardgrass plant response rating [13, 31] | Barnyardgrass plant response rating [13, 32] | Plant response rating, Barnyardgrass [13, 33] | Cocklebur plant response rating (0 to 100 scale) [14, 25] | Plant response rating, Cocklebur [14, 26] | Cocklebur plant response rating [14, 27] | Cocklebur plant response rating [14, 29] | Sedge, Umbrella plant response rating ([15]; 62 g ai/ha, scale 0 to 100) | Sedge, Umbrella plant response rating [15, 31] | Ducksalad plant response rating ([18]; 62 g ai/ha, scale 0 to 100) | Ducksalad plant response rating [18, 31] | Rice plant response rating ([21]; 62 g ai/ha, scale 0 to 100) | Rice plant response rating [21, 31] | Rice plant response rating [21, 32]
10: Wheat plant response rating [1, 23] | Crabgrass, Large plant response rating (0 to 100 scale) [3, 25] | Velvetleaf plant response rating [5, 23] | Corn plant response rating [10, 28] | Morningglory plant response rating [12, 24] | Oat, Wild plant response rating [22, 23]
70: Sedge, Umbrella plant response rating [2] | Plant response rating, Barnyardgrass [6, 26]
30: Wheat plant response rating [1, 24] | Pigweed plant response rating [4, 23] | Velvetleaf plant response rating [5, 24] | Lambsquarters plant response rating [7, 23] | Rice plant response rating (0 to 100 scale) ([17]; 125 g ai/ha, 0 = no effect, 100 = complete control) | Barnyardgrass plant response rating [19] | Oat, Wild plant response rating [22, 24]
80: Plant response rating, Velvetleaf [5, 26] | Plant response rating, Rice ([17]; 500 g ai/ha, visual rating, 0 = no effect, 100 = complete control)
100: Plant response rating, Crabgrass, Large [3, 26] | Plant response rating, Pigweed [4, 26] | Plant response rating, Lambsquarters [7, 26]
20: Crabgrass, Large plant response rating [3, 28] | Surinam Grass plant response rating [8, 24] | Blackgrass plant response rating ([9]; 500 g ai/ha)
15: Ducksalad plant response rating [18, 32] | Plant response rating, Rice [21, 33]
90: Ducksalad plant response rating [16]
60: Pigweed plant response rating [4, 24] | Barnyardgrass plant response rating [6, 29] | Lambsquarters plant response rating [7, 24] | Surinam Grass plant response rating (0 to 100 scale) [8, 25] | Plant response rating, Surinam Grass [8, 26] | Plant response rating, Foxtail, Giant [11, 26] | Sedge, Umbrella plant response rating [15, 32] | Plant response rating, Sedge, Umbrella [15, 33]
65: Plant response rating, Ducksalad [18, 33]
50: Foxtail, Giant plant response rating [11, 28] | Rice plant response rating [20]

CCOC(=O)c1cc(NC(=O)c2cc(C(C)(C)C)nn2CC)c(F)cc1OC [Compound 76]
85: Sedge, Umbrella plant response rating [15, 37] | Sedge, Umbrella plant response rating [15, 32] | Rice plant response rating [21, 32]
45: Ducksalad plant response rating [18, 30]
75: Ducksalad plant response rating [18, 32] | Rice plant response rating [21, 30]
60: Sedge, Umbrella plant response rating ([2]; visual rating, 13 to 15 days) | Plant response rating, Lambsquarters [7, 34] | Rice plant response rating ([20]; visual rating, 13 to 15 days)
30: Plant response rating, Wheat [1, 34] | Plant response rating, Velvetleaf [5, 36] | Lambsquarters plant response rating [7, 23] | Plant response rating, Corn [10, 34] | Plant response rating, Corn [10, 36] | Oat, Wild plant response rating [22, 23]
20: Wheat plant response rating [1, 23] | Plant response rating, Crabgrass, Large [3, 34] | Plant response rating, Barnyardgrass [6, 34] | Plant response rating, Surinam Grass [8, 34] | Surinam Grass plant response rating [8, 23] | Foxtail, Giant plant response rating [11, 27]
90: Crabgrass, Large plant response rating [3, 35] | Plant response rating, Foxtail, Giant [11, 36] | Plant response rating, Barnyardgrass [13, 33] | Plant response rating, Cocklebur [14, 34] | Plant response rating, Sedge, Umbrella [15, 33] | Plant response rating, Rice [21, 33]
50: Plant response rating, Lambsquarters [7, 36] | Plant response rating, Blackgrass ([9]; Postemergence, 500 g ai/ha, visual rating after 13 to 15 days) | Corn plant response rating [10, 35] | Barnyardgrass plant response rating [13, 30] | Plant response rating, Rice ([17]; 125 g ai/ha, 0 to 100 scale, 0 is no effect, 100 is complete control) | Ducksalad plant response rating [18, 37]
70: Plant response rating, Surinam Grass [8, 36] | Barnyardgrass plant response rating [13, 37] | Barnyardgrass plant response rating ([19]; visual rating, 13 to 15 days)
100: Plant response rating, Pigweed [4, 34] | Pigweed plant response rating [4, 23] | Plant response rating, Pigweed [4, 36] | Barnyardgrass plant response rating [6, 35] | Foxtail, Giant plant response rating [11, 35] | Ducksalad plant response rating ([16]; visual rating, 13 to 15 days)
80: Plant response rating, Crabgrass, Large [3, 36] | Plant response rating, Barnyardgrass [6, 36] | Barnyardgrass plant response rating [13, 32] | Sedge, Umbrella plant response rating [15, 30] | Plant response rating, Ducksalad [18, 33] | Rice plant response rating [21, 37]
10: Crabgrass, Large plant response rating [3, 27] | Barnyardgrass plant response rating [6, 27] | Blackgrass plant response rating ([9]; 125 g ai/ha) | Corn plant response rating [10, 27] | Plant response rating, Morningglory [12, 34] | Morningglory plant response rating [12, 23] | Plant response rating, Morningglory [12, 36]
40: Plant response rating, Velvetleaf [5, 34] | Velvetleaf plant response rating [5, 23] | Plant response rating, Foxtail, Giant [11, 34] | Cocklebur plant response rating [14, 35] | Cocklebur plant response rating [14, 27] | Plant response rating, Oat, Wild [22, 34]
